Source: ChEMBL document CHEMBL1629679, “Extended-spectrum cephalosporinases in Pseudomonas aeruginosa” (2009)
Values after ≈ are worked out from the molar mass of the structure shown.

Tests used:
[1] = test system: Pseudomonas aeruginosa; assay: Antimicrobial activity against AmpC overproducing Pseudomonas aeruginosa isolate Pae-beta-28 with PDC-7 variant by Etest; assay type: functional
[2] = test system: Pseudomonas aeruginosa; assay: Antimicrobial activity against AmpC overproducing Pseudomonas aeruginosa isolate Pae-beta-22 with PDC-4 variant by Etest; assay type: functional
[3] = test system: Pseudomonas aeruginosa; assay: Antimicrobial activity against AmpC overproducing Pseudomonas aeruginosa isolate Pae-beta-25 with PDC-6 variant by Etest; assay type: functional
[4] = test system: Pseudomonas aeruginosa; assay: Antimicrobial activity against AmpC overproducing Pseudomonas aeruginosa isolate Pae-beta-07 with PDC-2 variant by Etest; assay type: functional
[5] = test system: Pseudomonas aeruginosa; assay: Antimicrobial activity against AmpC overproducing Pseudomonas aeruginosa isolate Pae-beta-12 with PDC-2 variant by Etest; assay type: functional
[6] = test system: Pseudomonas aeruginosa; assay: Antimicrobial activity against AmpC overproducing Pseudomonas aeruginosa isolate Pae-beta-13 with PDC-2 variant by Etest; assay type: functional
[7] = test system: Pseudomonas aeruginosa; assay: Antimicrobial activity against AmpC overproducing Pseudomonas aeruginosa isolate Pae-beta-03 with PDC-2 variant by Etest; assay type: functional
[8] = test system: Pseudomonas aeruginosa; assay: Antimicrobial activity against AmpC overproducing Pseudomonas aeruginosa isolate Pae-beta-20 with PDC-4 variant by Etest; assay type: functional
[9] = test system: Pseudomonas aeruginosa; assay: Antimicrobial activity against Pseudomonas aeruginosa isolate Pae-beta-30 with PDC-8 variant by Etest; assay type: functional
[10] = test system: Pseudomonas aeruginosa; assay: Antimicrobial activity against AmpC overproducing Pseudomonas aeruginosa isolate Pae-beta-15 with PDC-2 variant by Etest; assay type: functional
[11] = test system: Pseudomonas aeruginosa; assay: Antimicrobial activity against AmpC overproducing Pseudomonas aeruginosa isolate Pae-beta-04 with PDC-2 variant by Etest; assay type: functional
[12] = test system: Pseudomonas aeruginosa; assay: Antimicrobial activity against AmpC overproducing Pseudomonas aeruginosa isolate Pae-beta-16 with PDC-3 variant by Etest; assay type: functional
[13] = test system: Pseudomonas aeruginosa; assay: Antimicrobial activity against AmpC overproducing Pseudomonas aeruginosa isolate Pae-beta-17 with PDC-3 variant by Etest; assay type: functional
[14] = test system: Pseudomonas aeruginosa; assay: Antimicrobial activity against AmpC overproducing Pseudomonas aeruginosa isolate Pae-beta-18 with PDC-3 variant by Etest; assay type: functional
[15] = test system: Pseudomonas aeruginosa; assay: Antimicrobial activity against Pseudomonas aeruginosa isolate Pae-beta-31 with PDC-9 variant by Etest; assay type: functional
[16] = test system: Pseudomonas aeruginosa; assay: Antimicrobial activity against AmpC overproducing Pseudomonas aeruginosa isolate Pae-beta-24 with PDC-5 variant by Etest; assay type: functional
[17] = test system: Pseudomonas aeruginosa; assay: Antimicrobial activity against AmpC overproducing Pseudomonas aeruginosa isolate Pae-beta-11 with PDC-2 variant by Etest; assay type: functional
[18] = test system: Pseudomonas aeruginosa; assay: Antimicrobial activity against AmpC overproducing Pseudomonas aeruginosa isolate Pae-beta-08 with PDC-2 variant by Etest; assay type: functional
[19] = test system: Pseudomonas aeruginosa; assay: microbe, parasite or virus in culture; assay type: functional; settings: KG2505a
[20] = test system: Pseudomonas aeruginosa; assay: Antimicrobial activity against Pseudomonas aeruginosa isolate Pae-beta-05 with PDC-2 variant by Etest; assay type: functional
[21] = test system: Pseudomonas aeruginosa; assay: microbe, parasite or virus in culture; settings: PAO1
[22] = test system: Pseudomonas aeruginosa; assay: microbe, parasite or virus in culture; assay type: functional; settings: KG2505a; remark: listed apart in the source
[23] = test system: Pseudomonas aeruginosa; assay: microbe, parasite or virus in culture; settings: 12B
[24] = test system: Pseudomonas aeruginosa; assay: Antimicrobial activity against AmpC overproducing Pseudomonas aeruginosa isolate Pae-beta-23 with PDC-5 variant by Etest; assay type: functional
[25] = test system: Pseudomonas aeruginosa; assay: Antimicrobial activity against AmpC overproducing Pseudomonas aeruginosa isolate Pae-beta-14 with PDC-2 variant by Etest; assay type: functional
[26] = test system: Pseudomonas aeruginosa; assay: Antimicrobial activity against AmpC overproducing Pseudomonas aeruginosa isolate Pae-beta-32 with PDC-10 variant by Etest; assay type: functional
[27] = test system: Pseudomonas aeruginosa; assay: Antimicrobial activity against AmpC overproducing Pseudomonas aeruginosa isolate Pae-beta-21 with PDC-4 variant by Etest; assay type: functional
[28] = test system: Pseudomonas aeruginosa; assay: microbe, parasite or virus in culture; assay type: functional; settings: KG2505a; remark: listed apart in the source
[29] = test system: Pseudomonas aeruginosa; assay: microbe, parasite or virus in culture; assay type: functional; settings: KG2505a; remark: listed apart in the source
[30] = test system: Pseudomonas aeruginosa; assay: Antimicrobial activity against AmpC overproducing Pseudomonas aeruginosa isolate Pae-beta-06 with PDC-2 variant by Etest; assay type: functional
[31] = test system: Pseudomonas aeruginosa; assay: Antimicrobial activity against AmpC overproducing Pseudomonas aeruginosa isolate Pae-beta-10 with PDC-2 variant by Etest; assay type: functional
[32] = test system: Pseudomonas aeruginosa; assay: microbe, parasite or virus in culture; assay type: functional; settings: KG2505a; remark: listed apart in the source
[33] = test system: Pseudomonas aeruginosa; assay: microbe, parasite or virus in culture; settings: 12B; remark: listed apart in the source
[34] = test system: Pseudomonas aeruginosa; assay: Antimicrobial activity against AmpC overproducing Pseudomonas aeruginosa isolate Pae-beta-27 with PDC-7 variant by Etest; assay type: functional
[35] = test system: Pseudomonas aeruginosa; assay: Antimicrobial activity against AmpC overproducing Pseudomonas aeruginosa isolate Pae-beta-09 with PDC-2 variant by Etest; assay type: functional
[36] = test system: Pseudomonas aeruginosa; assay: microbe, parasite or virus in culture; assay type: functional; settings: 12B
[37] = test system: Pseudomonas aeruginosa; assay: Antimicrobial activity against Pseudomonas aeruginosa isolate Pae-beta-29 with PDC-8 variant by Etest; assay type: functional

SMILES	MIC [1] [µg/mL]	MIC [2] [µg/mL]	MIC [3] [µg/mL]	MIC [4] [µg/mL]	MIC [5] [µg/mL]	MIC [6] [µg/mL]	MIC [7] [µg/mL]	MIC [8] [µg/mL]	MIC [9] [µg/mL]	MIC [10] [µg/mL]	MIC [11] [µg/mL]	MIC [12] [µg/mL]	MIC [13] [µg/mL]	MIC [14] [µg/mL]	MIC [15] [µg/mL]	MIC [16] [µg/mL]	MIC [17] [µg/mL]	MIC [18] [µg/mL]	MIC [20] [µg/mL]	MIC [24] [µg/mL]	also measured
CO/N=C(\C(=O)N[C@@H]1C(=O)N2C(C(=O)[O-])=C(C[N+]3(C)CCCC3)CS[C@H]12)c1csc(N)n1	16 (≈ 33.3 µM)	16 (≈ 33.3 µM)	32 (≈ 66.6 µM)	32 (≈ 66.6 µM)	32 (≈ 66.6 µM)	16 (≈ 33.3 µM)	64 (≈ 133 µM)	16 (≈ 33.3 µM)	8 (≈ 16.6 µM)	128 (≈ 266 µM)	32 (≈ 66.6 µM)	32 (≈ 66.6 µM)	32 (≈ 66.6 µM)	128 (≈ 266 µM)	32 (≈ 66.6 µM)	64 (≈ 133 µM)	32 (≈ 66.6 µM)	32 (≈ 66.6 µM)	16 (≈ 33.3 µM)	32 (≈ 66.6 µM)	MIC [19]: 16 µg/mL (≈ 33.3 µM); MIC [21]: 2 µg/mL (≈ 4.16 µM); MIC [22]: 1 µg/mL (≈ 2.08 µM); MIC [23]: 32 µg/mL (≈ 66.6 µM); MIC [25]: 32 µg/mL (≈ 66.6 µM); MIC [26]: 32 µg/mL (≈ 66.6 µM); MIC [27]: 32 µg/mL (≈ 66.6 µM); MIC [28]: 16 µg/mL (≈ 33.3 µM); MIC [29]: 4 µg/mL (≈ 8.32 µM); MIC [30]: 32 µg/mL (≈ 66.6 µM); MIC [31]: 32 µg/mL (≈ 66.6 µM); MIC [32]: 4 µg/mL (≈ 8.32 µM); MIC [33]: 32 µg/mL (≈ 66.6 µM); MIC [34]: 64 µg/mL (≈ 133 µM); MIC [35]: 32 µg/mL (≈ 66.6 µM); MIC [36]: 4 µg/mL (≈ 8.32 µM)
C[C@@H](O)[C@H]1C(=O)N2C(C(=O)O)=C(SCCNC=N)C[C@H]12 [IMIPENEM ANHYDROUS]	16 (≈ 53.4 µM)	8 (≈ 26.7 µM)	8 (≈ 26.7 µM)	16 (≈ 53.4 µM)	16 (≈ 53.4 µM)	16 (≈ 53.4 µM)	16 (≈ 53.4 µM)	16 (≈ 53.4 µM)	8 (≈ 26.7 µM)	16 (≈ 53.4 µM)	16 (≈ 53.4 µM)	32 (≈ 107 µM)	32 (≈ 107 µM)	64 (≈ 214 µM)	16 (≈ 53.4 µM)	32 (≈ 107 µM)	16 (≈ 53.4 µM)	16 (≈ 53.4 µM)	16 (≈ 53.4 µM)	32 (≈ 107 µM)	MIC [37]: 16 µg/mL (≈ 53.4 µM); MIC [25]: 16 µg/mL (≈ 53.4 µM); MIC [26]: 64 µg/mL (≈ 214 µM); MIC [27]: 16 µg/mL (≈ 53.4 µM); MIC [30]: 16 µg/mL (≈ 53.4 µM); MIC [31]: 16 µg/mL (≈ 53.4 µM); MIC [34]: 32 µg/mL (≈ 107 µM); MIC [35]: 16 µg/mL (≈ 53.4 µM)
